# Reference: US11986480B2, “Heterocyclic compound” (TOHOKU UNIVERSITY, priority 2017, dated 2024)
# Legend:
# FKBP12 = molecular target: T1, FKBP12 (Homo sapiens, UniProt P62942); test: Test Example 3: HeLa cells, Western blot FKBP12/actin (Testing Method C); format: cell-based; settings: FKBP12, 1 uM, 24 hours, 1 or less = degradation promoted
# T1 construct: endogenous in cells; host or cells: HeLa
# Protocol: (§1) Test Example 3: Evaluation Using HeLa Cell (Testing Method C)
# (§2) HeLa cells were inoculated to Dulbecco's Modified Eagle Medium (DMEM) and cultured for 24 hours. A test compound (specifically, compounds of Examples 47 to 52, 59 and 60) was added thereto at the final concentration shown in Table 2, followed by incubation for 24 hours under conditions of 37° C./5% CO2. The cells were washed with PBS three times and treated with a cell lysis solution containing a proteolytic enzyme inhibitor to obtain a cell extract. The cell extract was subjected to SDS-PAGE. After the electrophoresis, Brd4, FKBP12 or MetAP2 and actin were detected by Western blot. The ratio of the Brd4, FKBP12 or MetAP2/actin value of the drug-treated cells to the Brd4, FKBP12 or MetAP2/actin value of a control group in drug-untreated cells was regarded as an activity value. A value of 1 or less represents that degradation of Brd4, FKBP12 or MetAP2 was promoted.
# MetAP2 = molecular target: T2, MetAP2 (Homo sapiens, UniProt P50579); test: Test Example 3: HeLa cells, Western blot MetAP2/actin (Testing Method C); format: cell-based; settings: MetAP2, 0.1 uM, 24 hours, 1 or less = degradation promoted
# T2 construct: endogenous in cells; host or cells: HeLa
# T2 sequence (P50579 whole entry): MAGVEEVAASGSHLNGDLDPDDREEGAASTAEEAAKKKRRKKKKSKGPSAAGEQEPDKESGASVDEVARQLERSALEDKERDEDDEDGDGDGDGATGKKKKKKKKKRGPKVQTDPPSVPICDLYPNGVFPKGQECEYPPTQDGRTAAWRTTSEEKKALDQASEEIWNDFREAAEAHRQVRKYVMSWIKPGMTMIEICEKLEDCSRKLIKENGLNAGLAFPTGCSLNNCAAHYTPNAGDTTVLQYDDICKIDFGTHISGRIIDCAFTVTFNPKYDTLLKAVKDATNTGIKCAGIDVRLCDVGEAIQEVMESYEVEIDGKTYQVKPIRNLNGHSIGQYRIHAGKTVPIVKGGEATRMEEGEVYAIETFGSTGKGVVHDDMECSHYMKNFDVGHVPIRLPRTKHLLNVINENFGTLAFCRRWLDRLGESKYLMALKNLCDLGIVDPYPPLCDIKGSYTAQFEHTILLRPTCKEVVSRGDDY
# Protocol: as §1, §2
# T1 sequence (P62942 whole entry): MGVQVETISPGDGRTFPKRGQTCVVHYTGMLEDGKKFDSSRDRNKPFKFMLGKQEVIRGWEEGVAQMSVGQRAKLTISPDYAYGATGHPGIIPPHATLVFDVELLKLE
SMILES,Activity value (FKBP12/actin of drug-treated cells relative to drug-untreated control) (FKBP12),Activity value (MetAP2/actin of drug-treated cells relative to drug-untreated control) (MetAP2)
"CCC(C)(C)C(=O)C(=O)N1CCCCC1C(=O)O[C@H](CCc1ccc(OC)c(OC)c1)c1cccc(NC(=O)CCC(=O)NCCCOCCOCCOCCCNC(=O)[C@H](CSc2nc3c(=O)[nH]c(N)nc3n2Cc2ccc(F)cc2)NC(C)=O)c1 (stereo partly drawn) [Example 59, (1R)-1-(3-((18-((N-Acetyl-S-(2-amino-9-(4-fluorobenzyl)-6-oxo-6,9-dihydro-1H-purin-8-yl)-L-cysteinyl)amino)-4-oxo-9,12,15-trioxa-5-azaoctadecan-1-oyl)amino)phenyl)-3-(3,4-dimethoxyphenyl)propyl 1-(3,3-dimethyl-2-oxopentanoyl)piperidine-2-carboxylate]",0.5,–
"CO[C@@H]1[C@H](OC(=O)NCCCOCCOCCOCCCNC(=O)[C@H](CSc2nc3c(=O)[nH]c(N)nc3n2Cc2ccc(F)cc2)NC(C)=O)CC[C@]2(CO2)[C@H]1[C@@]1(C)O[C@@H]1CC=C(C)C [Example 60, (3R,5S,6R)-5-Methoxy-4-((2R,3R)-2-methyl-3-(3-methylbut-2-en-1-yl)oxiran-2-yl)-1-oxaspiro[2.5]oct-6-yl (3-(2-(2-(3-((N-acetyl-S-(2-amino-9-(4-fluorobenzyl)-6-oxo-6,9-dihydro-1H-purin-8-yl)-L-cysteinyl)amino)propoxy)ethoxy)ethoxy)propyl)carbamate]",–,0.7
